Results from publication PMC4047925 (Journal of Agricultural and Food Chemistry, 2014).

Experiment: hydroxyl radical-scavenging assay
Assay type: biochemical
Details: ED50 <20 μM considered active
For COC(=O)C(C)n1c(C=O)ccc1CO (stereo not drawn) [Compound 1, methyl 2-[2-formyl-5-(hydroxymethyl)-1H-pyrrol-1-yl]propanoate], the “hydroxyl radical scavenging ED50 (concentration scavenging hydroxyl radical by 50%)” value was 16.7 µM.
With CC(=O)c1ccc(O)cn1 [Compound 6, 5-hydroxy-2-pyridyl methyl ketone] the “hydroxyl radical scavenging ED50 (concentration scavenging hydroxyl radical by 50%)” value was >20 µM.
For O=c1c(O)c(-c2ccc(O)c(O)c2)oc2cc(O)cc(O)c12 [quercetin, reference compound], the “hydroxyl radical scavenging ED50 (concentration scavenging hydroxyl radical by 50%)” value was 1.3 µM.
